The text below walks through data of patent US9487482B2, “3,4,5-trimethoxystyrylarylaminopropenones as potential anticancer agents” (Council of Scientific and Industrial Research, priority 2014, dated 2016).

In one assay the test system is A549 cells. As to the kind of experiment: In vitro cytotoxicity, MTT assay, A549. Particulars: Homo sapiens, A549 (non-small cell lung cancer), 48 h continuous drug exposure. The assay is classed as cell-based, human. As to the method: (§1) All cell lines used in this study were purchased from the American Type Culture Collection (ATCC, United States). A549, MCF-7, and HeLa were grown in Dulbecco's modified Eagle's medium (containing 10% FBS in a humidified atmosphere of 5% CO2 at 37° C.). HCT116 cells were cultured in Eagle's minimal essential medium (MEM) containing non-essential amino acids, 1 mM sodium pyruvate, […] bovine insulin, and 10% FBS. Cells were trypsinized when sub-confluent from T25 flasks/60 mm dishes and seeded in 96-well plates. The synthesized test compounds were evaluated for their in vitro antiproliferative in four different human cancer cell lines. A protocol of 48 h continuous drug exposure was used, and a MTT cell proliferation assay was used to estimate cell viability or growth. The cell lines were grown in their respective media containing 10% fetal bovine serum and were seeded into 96-well microtiter plates in 200 μL, aliquots at plating densities depending on the doubling time of individual cell lines. The microtiter plates were incubated at 37° C., 5% CO2, 95% air, and 100% relative humidity for 24 h prior to addition of experimental drugs. Aliquots of 2 μL, of the test compounds were added to the wells already containing 198 μL, of cells, resulting in the required final drug concentrations. For each compound, four concentrations (1, 10, 100, and 1000 μM) were evaluated, and each was done in triplicate wells. Plates were incubated further for 48 h, and the assay was terminated by the addition of 10 μL, of 5% MTT and incubated for 60 min at 37° C. Later, the plates were air-dried. Bound stain was subsequently eluted with 100 μL, of DMSO, and the absorbance was read on an multimode plate reader (Tecan M200) at a wavelength of 560 nm. Percent growth was calculated on a plate by plate basis for test wells relative to control wells. The above determinations were repeated thrice. The growth inhibitory effects of the compounds were analyzed by generating dose response curves as a plot of the percentage surviving cells versus compound concentration. The sensitivity of the cancer cells to the test compound was expressed in terms of IC50, a value defined as the concentration of compound that produced 50% reduction as compared to the control absorbance. (A. S. Kumar, M. A. Reddy, N. Jain, C. Kishor, T. R. Murthy, D. Ramesh, B. Supriya, A. Addlagatta, S. V. Kalivendi, B. Sreedhar. Eur. J. Med. Chem. 60 (2013) 305-24).
On the technique in general: Tetrazolium assays rely on reduction of a dye to a coloured formazan, in cell work by metabolically active cells.

For another assay, the system named is HeLa cells. Put plainly: In vitro cytotoxicity, MTT assay, HeLa. The assay is classed as cell-based, human. The note with it: Homo sapiens, HeLa (cervical carcinoma), 48 h continuous drug exposure. As to the method: as §1
Assay [1] relates to A549, HeLa, MCF-7 and HCT116 cells. Put plainly: In vitro cytotoxicity, MTT assay, summary over all four cancer cell lines. The assay is classed as cell-based. Particulars: Homo sapiens, range over the group of compounds and the four cell lines, read-out: IC50 value range towards all the cancer cell lines. Here is the method: as §1
Another assay relates to MCF-7 cells. Put plainly: In vitro cytotoxicity, MTT assay, MCF-7. The note with it: Homo sapiens, MCF7, 48 h, MCF-7 (breast cancer), 48 h continuous drug exposure. The format is cell-based, human. As to the method:
as §1

In a further assay the test system is HCT116 cells. As to the kind of experiment: In vitro cytotoxicity, MTT assay, HCT116. The format is cell-based, human. Particulars: Homo sapiens, HCT-116, HCT116 (colon carcinoma), 48 h continuous drug exposure. Here is the method: as §1
In a further assay the test system is tubulin. Particulars: by binding at colchicine binding site; Simoni et al., J. Med. Chem. 2008; cited from earlier work.

The structures appear in SMILES notation.

Regarding `COc1cc(/C=C\c2cc(OC)c(OC)c(OC)c2)cc(N/C=C\C(=O)c2cc(OC)c(OC)c(OC)c2Br)c1OC` [Compound 11y, (Z)-1-(2-bromo-3,4,5-trimethoxyphenyl)-3-((2,3-dimethoxy-5-((Z)-3,4,5-trimethoxystyryl)phenyl)amino)prop-2-en-1-one], the concentration for half-maximal inhibition (IC50) was 0.28 µM with A549 cells; 1.58 µM with HeLa cells; 0.12 to 5.75 µM in assay [1]; 5.37 µM in the assay on MCF-7 cells; 0.3 µM in the assay on HCT116 cells.
Consider `COc1ccc(/C=C\c2cc(OC)c(OC)c(OC)c2)c(N/C=C\C(=O)c2ccc(OC(F)(F)F)cc2)c1O` [Compound 16o, (Z)-3-((2-hydroxy-3-methoxy-6-((Z)-3,4,5-trimethoxystyryl)phenyl)amino)-1-(4-(trifluoromethoxy)phenyl)prop-2-en-1-one], for which the IC50 is 1.32 µM in the assay on A549 cells; 7.08 µM in the assay with HeLa cells; 0.18 to 7.33 µM in assay [1]; 2.24 µM in the assay with MCF-7 cells; 1.95 µM in the assay with HCT116 cells.
Regarding `COc1ccc(C(=O)/C=C\Nc2c(/C=C\c3cc(OC)c(OC)c(OC)c3)ccc(OC)c2O)cc1O` [Compound 16q, (Z)-3-((2-hydroxy-3-methoxy-6-((Z)-3,4,5-trimethoxystyryl)phenyl)amino)-1-(3-hydroxy-4-methoxyphenyl)prop-2-en-1-one], the concentration for half-maximal inhibition (IC50) with A549 cells was 1.58 µM; with HeLa cells, 4.17 µM; in assay [1] it was 0.18 to 7.33 µM; in the assay with MCF-7 cells, 0.2 µM; in the assay on HCT116 cells, 6.76 µM.
The corresponding values for `COc1ccc(C(=O)/C=C\Nc2c(/C=C\c3cc(OC)c(OC)c(OC)c3)ccc(OC)c2O)cc1[N+](=O)[O-]` [Compound 16t, (Z)-3-((2-hydroxy-3-methoxy-6-((Z)-3,4,5-trimethoxystyryl)phenyl)amino)-1-(4-methoxy-3-nitrophenyl)prop-2-en-1-one] are 7.33 µM, 1.66 µM, 0.18 to 7.33 µM, 0.6 µM and 3.98 µM.
Take `COc1ccc(C(=O)/C=C\Nc2c(/C=C\c3cc(OC)c(OC)c(OC)c3)ccc(OC)c2O)cc1N` [Compound 16u]: the IC50 is 1.32 µM in the assay on A549 cells; 2.51 µM in the assay with HeLa cells; 0.18 to 7.33 µM in assay [1]; 0.18 µM with MCF-7 cells; 1.74 µM in the assay on HCT116 cells.
For `COc1ccc(/C=C\c2cc(OC)c(OC)c(OC)c2)c(N/C=C\C(=O)c2cc(OC)c(OC)c(OC)c2)c1O` [Compound 16x, (Z)-3-((2-hydroxy-3-methoxy-6-((Z)-3,4,5-trimethoxystyryl)phenyl)amino)-1-(3,4,5-trimethoxyphenyl)prop-2-en-1-one], the half-inhibitory concentration (IC50) in the assay on A549 cells is 0.25 µM; with HeLa cells, 0.56 µM; in assay [1], 0.18 to 7.33 µM; in the assay on MCF-7 cells, 0.23 µM; with HCT116 cells it was 3.63 µM.
Turning to `COc1ccc(/C=C\c2cc(OC)c(OC)c(OC)c2)c(N/C=C\C(=O)c2cc(OC)c(OC)c(OC)c2Br)c1O` [Compound 16y, (Z)-1-(2-bromo-3,4,5-trimethoxyphenyl)-3-((2-hydroxy-3-methoxy-6-((Z)-3,4,5-trimethoxystyryl)phenyl)amino)prop-2-en-1-one], the IC50 in the assay on A549 cells was 7.08 µM; in the assay with HeLa cells, 1.78 µM; in assay [1], 0.18 to 7.33 µM; in the assay on MCF-7 cells it was 0.19 µM; in the assay on HCT116 cells, 2.69 µM.
Turning to `COc1cc(/C=C\c2ccc(OC)c(N)c2)cc(OC)c1` [S4 (Ca-4 amine), (Z)-5-(3,5-dimethoxystyryl)-2-methoxyaniline, reference compound], the half-maximal inhibitory concentration (IC50) in the assay with A549 cells worked out at 1.78 µM; in the assay on HeLa cells it was 0.58 µM; in the assay with MCF-7 cells, 4.07 µM; with HCT116 cells it was 1.62 µM. Further, the “inhibited tubulin polymerization, compared with CA-4” value in the assay on tubulin was “five times stronger than CA-4”.

The term IC50 denotes the midpoint of a concentration-inhibition curve.
